According to patent US5976523A, “Method for healing compromised tissues using pyrimidine derivatives” (Mitsui Pharmaceuticals, Inc., priority 1995, dated 1999):
Counter-ions that a name gives are not always drawn.

Legend:
[1] = tested on: primary cultured gastric mucosal cells; test: Wound repair model with primary cultured gastric mucosal cells; assay type: cell-based, rabbit
Protocol: Primary cultured gastric mucosal cells were prepared by mechanically peeling and mincing the gastric mucosa of a rabbit having a body weight of 2 kg and then digesting the minced gastric mucosa with 0.07% collagenase. The primary cultured gastric mucosal cells were cultured at a cell concentration of 3.3×10^5 cells/ml in F-12 culture medium containing 10% fetal calf serum added therein. For this cultivation, a culture dish (60 mm in diameter) coated with collagen type I was used. […] Using an anti-BrdU antibody, the cells in the S phase were stained to identify proliferated cells.
Their effects on the process of restoration were measured under the above-described parameters. […] In each of the control group and the medicament-added groups, the area of the wounded region was measured at the 0th hour, 12th hour, 24th hour, 36th hour and 48th hour. The measurement results will be given in this order.
The control group and the groups added with the medicament at the respective concentrations were each subjected to the experiment with n=5. The results will each be presented as a (mean±S. D.) mm2. A test of significance was conducted relative to the control group. * stands for p<0.05, ** for p<0.01, *** for p<0.001. A further test of significance was conducted relative to a group added with 10 ng/ml of EGF. + stands for p<0.05, and ++ for <0.01.

hepatocytes = test: DNA and protein synthesis in primary cultured hepatocytes; assay type: cell-based, SD rat
Source text: (§1) As fulminant hepatitis may develop hepatocellular regeneration failure despite a high HGF concentration in blood, use of a medicament capable of enhancing effects of a growth factor is desired. Activities of a compound according to the present invention as a hepatic medicine were investigated using primary cultured cells and Ito (star) cells of rat.
An SD male rat of about 200 g in body weight was sacrificed by perfusion of collagenase-containing physiological saline. Hepatocytes were immediately collected and then spread at 5.0×10^4 cells/cm^2 over plates, followed by the initiation of cultivation. Two hours later, the culture medium was replaced by a fresh supply of the culture medium. Twenty-four hours later, EGF and [^3 H]-leucine (1 μCi/ml) were added to half the number of the plates with or without addition of 2-piperidino-7-methyl-6-oxo-5,6-dihydro(7H)pyrro[2,3-d]pyrimidine maleate, respectively. At the same time, EGF was added to the remaining plates with or without addition of the invention compound, respectively. Forty-six hours later, the latter plates were both added further with [^3 H]-tymidine (2 μCi/ml). Forty-eight hours later, each culture was filtered under suction to harvest the cells so cultivated. Trichloroacetic acid (TCA) was added to the thus-harvested cells to obtain a TCA precipitate. The TCA precipitate was formed into a pellet. The pellets which had been obtained from the [^3 H]-tymidine-added cultures, respectively, were each dissolved with 0.1N NaOH. The resulting solution was added to a liquid scintillator and the amount of DNA synthesized by the cells was measured by a liquid scintillation counter. Likewise, the pellets which had been obtained from the [^3 H]-leucine-added cultures, respectively, were each boiled at 70° C. to extract soluble matter. The extract so obtained was also added with TCA to obtain a TCA precipitate. The TCA precipitate was dissolved with 0.1N NaOH. The resulting solution was added to the liquid scintillator and the amount of proteins synthesized by the cells was measured by the liquid scintillation counter.

Ito (star) cells = test: DNA and collagen synthesis and αSM expression in Ito (star) cells; assay type: cell-based, SD rat
Source text: as §1
On the other hand, an SD male rat of about 300 g in body weight was sacrificed by perfusion of physiological saline containing collagenase and proteinase. Ito (star) cells were collected and then spread at 1.25×10^5 cells/cm^2 over plates, followed by the initiation of cultivation. The cultivation was conducted for 6 days. In a manner similar to the procedures described above, some of the plates were added with the invention compound and [^3 H]-leucine 24 hours before harvest, while the remaining plates were added with the invention compound 24 hours before harvest and were then added with [^3 H]-tymidine two hours before the harvest. The synthesized amount of DNA and that of proteins were measured. Further, after Ito cells were cultured for 6 days, the invention compound and b-FGF were added. Subsequent to cultivation for 30 minutes, […] of ascorbic acid and 0.5 mM of β-aminopropionitrile fumarate were added, followed by cultivation for 1 hour. [2,3-^3 H]-proline (10 μCi/ml) was added, followed by further cultivation for 24 hours. The culture was separated into the culture medium and the resultant cells, and a TCA precipitate was formed. After the precipitate was dissolved with 0.1N NaOH, the cells were incubated in the presence of bacterial collagenase. The reaction was terminated with TCA-tannic acid, followed by the formation of a pellet. A supernatant fraction was added to the liquid scintillator and the amount of proteins synthesized by the cells was measured by the liquid scintillation counter.

bone defect (tibia) = test: Rat bone defect model, formation of hyaline cartilage matrix; assay type: in vivo; conditions: bFGF (0.5 μg) pellet, 7th day
Source text: Action of 2-piperazino-6-methyl-5-oxo-5,6-dihydro(7H)pyrro[3,4-d]pyrimidinemaleate on in vivo chondrogenesis was studied in detail by preparing a rat bone defect model which permits observation of bFGF-derived formation of a hyaline cartilage matrix. Embedment of a bFGF-containing pellet in a bone defect of the model permits easy observation of formation of a hyaline cartilage matrix under the periosteum around the bone defect. Rats were divided into three groups. The rats in one of the groups were each embedded in a formed bone defect (diameter: 2.6 mm) thereof with a hydroxyethyl methacrylate pellet (10 mg) which contained bFGF (0.5 μg). The rats in another one of the groups were each embedded likewise with a hydroxyethyl methacrylate pellet (10 mg) which contained bFGF (0.5 μg) and the invention compound (0.5 mg). The rats in the remaining group, that is, a control group were each embedded similarly with a pellet which contained physiological saline. After the rats in all the three groups were sacrificed seven days later, action of bFGF or the invention compound on the process of chondrogenesis on enchondral ossification around the bone defect was investigated. On the 7th day after the formation of the bone defect, the tibia of each rat was histologically examined around the bone defect.

[2] = tested on: CAMs (chorioallantoic membranes); test: Angiogenesis on chorioallantoic membranes (CAM); assay type: in vivo, chick; conditions: day 3
Protocol: For a bFGF, various assay systems assessing the angiogenesis activity of the bFGF as an index are usable. The shells of chick embryos are fenestrated centrally corresponding to the air spaces thereof, whereby the chorioallantoic membranes (CAMS) are exposed. Solutions of the bFGF and a test medicament at various concentrations were applied onto the respective CAMs. Incubation was continued. Several days later, the degrees of angiogenesis were investigated under a microscope. This method is preferably employed. […] The test medicament is therefore found to be useful for the reduction of a time required for the construction of a skin-equivalent tissue. […] Also with respect to a VEGF, its angiogenesis activity can be assayed in a similar system.
The shells of eggs on the 10th day after fertilization were fenestrated centrally corresponding to air spaces thereof, whereby CAMs (chorioallantoic membranes) were exposed. A nylon film in the form of a square of 3 mm in side was placed over the CAM, and onto the nylon film, a solution of bFGF as a growth and/or differentiation factor or the pyrimidine compound according to the present invention was dropped in an amount of 8 ul. Incubation was continued at 38° C. On the 72nd hour, the eggs were moved to a cool place controlled at 4° C. After the eggs were left over for 2 to 3 hours there, the degree of angiogenesis in each egg was investigated under a microscope. The angiogenesis was determined based on the number of radial blood vessels equal to or larger than 0.1 mm in diameter. Onto the nylon disk placed over the CAMS, 1, 10, and 100 ng/ml solutions of recombinant human bFGF (product of Genzyme Corporation) in physiological saline and 0.01 to 1 mM solutions of the individual pyrimidine compound in physiological saline were applied singly or in combination.

[3] = 1 μM to 100 μM, irrespective of b-FGF

**Q.** CN1C(=O)Cc2cnc(N3CCCCC3)nc21 [Compound A, 2-piperidino-7-methyl-6-oxo-5,6-dihydro(7H)pyrro[2,3-d]pyrimidine maleate] was tested. Which “area of the wounded region (mean±S.D.)” value ([1]; EGF + 0.01 mM compound, 0th hour) did it give?
**A.** Its value is 2.06±0.05 mm2.

**Q.** And the “area of the wounded region (mean±S.D.)” value ([1]; EGF + 0.01 mM compound, 12th hour)?
**A.** Its value is 0.72±0.36 mm2.

**Q.** What about the “area of the wounded region (mean±S.D.)” value ([1]; EGF + 0.01 mM compound, 24th hour) of the same molecule?
**A.** Its value is 0.39±0.04 mm2.

**Q.** And the “area of the wounded region (mean±S.D.)” value ([1]; EGF + 0.01 mM compound, 36th hour)?
**A.** Its value is 0.05±0.04 mm2.

**Q.** And the “area of the wounded region (mean±S.D.)” value ([1]; EGF + 0.01 mM compound, 48th hour)?
**A.** Its value is 0 mm2.

**Q.** What about the “area of the wounded region (mean±S.D.)” value ([1]; EGF + 0.1 mM compound, 0th hour) of the same molecule?
**A.** The value was 2.08±0.08 mm2.

**Q.** What about the “area of the wounded region (mean±S.D.)” value ([1]; EGF + 0.1 mM compound, 12th hour) of the same molecule?
**A.** The value was 0.80±0.04 mm2.

**Q.** And the “area of the wounded region (mean±S.D.)” value ([1]; EGF + 0.1 mM compound, 24th hour)?
**A.** The value was 0.24±0.05 mm2.

**Q.** And the “area of the wounded region (mean±S.D.)” value ([1]; EGF + 0.1 mM compound, 36th hour)?
**A.** The value was 0 mm2.

**Q.** What about the “area of the wounded region (mean±S.D.)” value ([1]; EGF + 0.1 mM compound, 48th hour) of the same molecule?
**A.** The value was 0 mm2.

**Q.** What about the “effect on EGF-induced acceleration of cell restoration” value ([1]; compound 0.01-0.1 mM with EGF) of the same molecule?
**A.** The value was “further promoted the EGF-induced acceleration of cell restoration in a concentration-dependent fashion”.

**Q.** And the repairing effects ([1]; compound alone 0.01-0.1 mM, absence of EGF)?
**A.** The repairing effects was “did not show repairing effects in the absence of EGF”.

**Q.** What about the “concentration of albumin in the supernatant” value (hepatocytes; 10 μM compound, with EGF) of the same molecule?
**A.** The value was “no change was observed”.

**Q.** What about the “expression of mRNA (albumin)” value (hepatocytes; 10 μM compound, with EGF) of the same molecule?
**A.** Its value is “no change was observed”.

**Q.** What about the “synthesis of DNA by the hepatocytes” value (hepatocytes; 10 μM compound, with EGF) of the same molecule?
**A.** The value was “significantly increased”.

**Q.** What about the “synthesis of DNA by the hepatocytes” value (hepatocytes; without EGF) of the same molecule?
**A.** The value was “not recognized to promote the synthesis of DNA”.

**Q.** What about the “synthesis of DNA by the star cells” value (Ito (star) cells; [3]) of the same molecule?
**A.** Its value is “lowered depending on the amount of the invention compound”.

**Q.** What about the “synthesis of collagen by the star cells” value (Ito (star) cells; [3]) of the same molecule?
**A.** Its value is “lowered depending on the amount of the invention compound”.

**Q.** What about the “expression of αSM” value (Ito (star) cells; compound with b-FGF, quantity-dependent) of the same molecule?
**A.** The value was “allowed to recover by the addition of the invention compound in a quantity-dependent manner”.

**Q.** And the “expression of α2-smooth muscle actin (αSM)” value (Ito (star) cells; compound, absence of b-FGF)?
**A.** The value was “lowered by the addition of the invention compound”.

**Q.** Which results are given for “bFGF: basic fibroblast growth factor; recombinant human bFGF (product of Genzyme Corporation) in Example 26”?
**A.** expression of αSM (Ito (star) cells; b-FGF alone): lowered by the presence of b-FGF; formation of a hyaline cartilage matrix (bone defect (tibia)): in a small amount; number of new blood vessels (M±SE) ([2]; bFGF alone 1 ng/ml): 4.1±0.4; number of new blood vessels (M±SE) ([2]; bFGF alone 10 ng/ml): 4.3±0.7; number of new blood vessels (M±SE) ([2]; bFGF alone 100 ng/ml): 6.1±1.1
